Species: Rattus norvegicus
Assay: DrugMatrix - Regimen: Daily Repeat
Format: toxicity, organism-based, Sprague-Dawley
Design: regimen Daily Repeat, gender Male, age 6-8 weeks
Conditions: in vivo, po, 0 mg/kg, route oral GAVAGE, dose level Control, vehicle .5 % CMC; for ABSOLUTE BASOPHIL / ABSOLUTE EOSINOPHIL / ABSOLUTE LYMPHOCYTE / ABSOLUTE MONOCYTE / ABSOLUTE SEGMENTED NEUTROPHIL / BASOPHIL / EOSINOPHIL / ERYTHROCYTE COUNT / HEMATOCRIT / HEMOGLOBIN / LEUKOCYTE COUNT / LYMPHOCYTE / MEAN CORPUSCULAR HEMOGLOBIN / MEAN CORPUSCULAR HEMOGLOBIN CONCENTRATION / MEAN CORPUSCULAR VOLUME / MONOCYTE / NEUTROPHIL / NUCLEATED RED BLOOD CELLS / PLATELET COUNT: tissue Blood; for ALANINE AMINOTRANSFERASE / ALBUMIN / ALKALINE PHOSPHATASE / ASPARTATE AMINOTRANSFERASE / BLOOD UREA NITROGEN / CARBON DIOXIDE / CHLORIDE / CHOLESTEROL / CREATININE / GLUCOSE / LACTATE DEHYDROGENASE / LIPASE / PHOSPHORUS / POTASSIUM / SODIUM / TOTAL BILIRUBIN / TOTAL PROTEIN / URIC ACID: tissue Plasma

ClC(Cl)Br [BROMODICHLOROMETHANE]
ABSOLUTE BASOPHIL (72 h, time 3 day): 0 CELLS/uL
ABSOLUTE EOSINOPHIL (72 h, time 3 day): 279.83 CELLS/uL
ABSOLUTE LYMPHOCYTE (72 h, time 3 day): 13152.5 CELLS/uL
ABSOLUTE MONOCYTE (72 h, time 3 day): 1013.83 CELLS/uL
ABSOLUTE SEGMENTED NEUTROPHIL (72 h, time 3 day): 2420.5 CELLS/uL
BASOPHIL (72 h, time 3 day): 0%
EOSINOPHIL (72 h, time 3 day): 1.67%
ERYTHROCYTE COUNT (72 h, time 3 day): 5.26 x10E6/uL
HEMATOCRIT (72 h, time 3 day): 32.22%
HEMOGLOBIN (72 h, time 3 day): 12.02 G/DL
LEUKOCYTE COUNT (72 h, time 3 day): 16.87 x10E3/uL
LYMPHOCYTE (72 h, time 3 day): 77.83%
MEAN CORPUSCULAR HEMOGLOBIN (72 h, time 3 day): 22.93 pg
MEAN CORPUSCULAR HEMOGLOBIN CONCENTRATION (72 h, time 3 day): 37.32 G/DL
MEAN CORPUSCULAR VOLUME (72 h, time 3 day): 61.4 fL
MONOCYTE (72 h, time 3 day): 6%
NEUTROPHIL (72 h, time 3 day): 14.5%
NUCLEATED RED BLOOD CELLS (72 h, time 3 day): 0 /100WBC
PLATELET COUNT (72 h, time 3 day): 1122.17 x10E3/uL
ALANINE AMINOTRANSFERASE (72 h, time 3 day): 55.67 u/L
ALBUMIN (72 h, time 3 day): 4.35 G/DL
ALKALINE PHOSPHATASE (72 h, time 3 day): 362.67 u/L
ASPARTATE AMINOTRANSFERASE (72 h, time 3 day): 96 u/L
BLOOD UREA NITROGEN (72 h, time 3 day): 18 mg/dL
CARBON DIOXIDE (72 h, time 3 day): 27.5 mmol/L
CHLORIDE (72 h, time 3 day): 100.17 MEQ/L
CHOLESTEROL (72 h, time 3 day): 74.5 mg/dL
CREATININE (72 h, time 3 day): 0.17 mg/dL
GLUCOSE (72 h, time 3 day): 141.67 mg/dL
LACTATE DEHYDROGENASE (72 h, time 3 day): 682.5 u/L
LIPASE (72 h, time 3 day): 10 u/L
PHOSPHORUS (72 h, time 3 day): 11.5 mg/dL
POTASSIUM (72 h, time 3 day): 6.41 MEQ/L
SODIUM (72 h, time 3 day): 141.2 MEQ/L
TOTAL BILIRUBIN (72 h, time 3 day): 0.18 mg/dL
TOTAL PROTEIN (72 h, time 3 day): 5.88 G/DL
URIC ACID (72 h, time 3 day): 1.4 mg/dL
ABSOLUTE BASOPHIL (120 h, time 5 day): 0 CELLS/uL
ABSOLUTE EOSINOPHIL (120 h, time 5 day): 18.5 CELLS/uL
ABSOLUTE LYMPHOCYTE (120 h, time 5 day): 8146.83 CELLS/uL
ABSOLUTE MONOCYTE (120 h, time 5 day): 204.83 CELLS/uL
ABSOLUTE SEGMENTED NEUTROPHIL (120 h, time 5 day): 1329.83 CELLS/uL
BASOPHIL (120 h, time 5 day): 0%
EOSINOPHIL (120 h, time 5 day): 0.17%
ERYTHROCYTE COUNT (120 h, time 5 day): 5.37 x10E6/uL
HEMATOCRIT (120 h, time 5 day): 33.17%
HEMOGLOBIN (120 h, time 5 day): 12.07 G/DL
LEUKOCYTE COUNT (120 h, time 5 day): 9.7 x10E3/uL
LYMPHOCYTE (120 h, time 5 day): 85.33%
MEAN CORPUSCULAR HEMOGLOBIN (120 h, time 5 day): 22.52 pg
MEAN CORPUSCULAR HEMOGLOBIN CONCENTRATION (120 h, time 5 day): 36.42 G/DL
MEAN CORPUSCULAR VOLUME (120 h, time 5 day): 61.78 fL
MONOCYTE (120 h, time 5 day): 1.83%
NEUTROPHIL (120 h, time 5 day): 12.67%
NUCLEATED RED BLOOD CELLS (120 h, time 5 day): 0 /100WBC
PLATELET COUNT (120 h, time 5 day): 907.5 x10E3/uL
ALANINE AMINOTRANSFERASE (120 h, time 5 day): 58.5 u/L
ALBUMIN (120 h, time 5 day): 4.4 G/DL
ALKALINE PHOSPHATASE (120 h, time 5 day): 377.67 u/L
ASPARTATE AMINOTRANSFERASE (120 h, time 5 day): 140.33 u/L
BLOOD UREA NITROGEN (120 h, time 5 day): 15.33 mg/dL
CARBON DIOXIDE (120 h, time 5 day): 32.17 mmol/L
CHLORIDE (120 h, time 5 day): 100 MEQ/L
CHOLESTEROL (120 h, time 5 day): 71.83 mg/dL
CREATININE (120 h, time 5 day): 0.18 mg/dL
GLUCOSE (120 h, time 5 day): 185 mg/dL
LACTATE DEHYDROGENASE (120 h, time 5 day): 241.5 u/L
LIPASE (120 h, time 5 day): 9.5 u/L
PHOSPHORUS (120 h, time 5 day): 13.02 mg/dL
POTASSIUM (120 h, time 5 day): 6.45 MEQ/L
SODIUM (120 h, time 5 day): 143.45 MEQ/L
TOTAL BILIRUBIN (120 h, time 5 day): 0.22 mg/dL
TOTAL PROTEIN (120 h, time 5 day): 6.1 G/DL
URIC ACID (120 h, time 5 day): 1 mg/dL
ABSOLUTE BASOPHIL ([…], time 14 day): 0 CELLS/uL
ABSOLUTE EOSINOPHIL ([…], time 14 day): 117.17 CELLS/uL
ABSOLUTE LYMPHOCYTE ([…], time 14 day): 13562 CELLS/uL
ABSOLUTE MONOCYTE ([…], time 14 day): 534.83 CELLS/uL
ABSOLUTE SEGMENTED NEUTROPHIL ([…], time 14 day): 2486 CELLS/uL
BASOPHIL ([…], time 14 day): 0%
EOSINOPHIL ([…], time 14 day): 0.83%
ERYTHROCYTE COUNT ([…], time 14 day): 6.14 x10E6/uL
HEMATOCRIT ([…], time 14 day): 36.87%
HEMOGLOBIN ([…], time 14 day): 13.87 G/DL
LEUKOCYTE COUNT ([…], time 14 day): 16.7 x10E3/uL
LYMPHOCYTE ([…], time 14 day): 81%
MEAN CORPUSCULAR HEMOGLOBIN ([…], time 14 day): 22.63 pg
MEAN CORPUSCULAR HEMOGLOBIN CONCENTRATION ([…], time 14 day): 37.62 G/DL
MEAN CORPUSCULAR VOLUME ([…], time 14 day): 60.15 fL
MONOCYTE ([…], time 14 day): 3.17%
NEUTROPHIL ([…], time 14 day): 15%
NUCLEATED RED BLOOD CELLS ([…], time 14 day): 0 /100WBC
PLATELET COUNT ([…], time 14 day): 974.83 x10E3/uL
ALANINE AMINOTRANSFERASE ([…], time 14 day): 52.33 u/L
ALBUMIN ([…], time 14 day): 4.48 G/DL
ALKALINE PHOSPHATASE ([…], time 14 day): 346.17 u/L
ASPARTATE AMINOTRANSFERASE ([…], time 14 day): 81 u/L
BLOOD UREA NITROGEN ([…], time 14 day): 15.67 mg/dL
CARBON DIOXIDE ([…], time 14 day): 34.33 mmol/L
CHLORIDE ([…], time 14 day): 100.17 MEQ/L
CHOLESTEROL ([…], time 14 day): 70.83 mg/dL
CREATININE ([…], time 14 day): 0.22 mg/dL
GLUCOSE ([…], time 14 day): 141.17 mg/dL
LACTATE DEHYDROGENASE ([…], time 14 day): 121.33 u/L
LIPASE ([…], time 14 day): 8.33 u/L
PHOSPHORUS ([…], time 14 day): 9.97 mg/dL
POTASSIUM ([…], time 14 day): 6.4 MEQ/L
SODIUM ([…], time 14 day): 143.72 MEQ/L
TOTAL BILIRUBIN ([…], time 14 day): 0.22 mg/dL
TOTAL PROTEIN ([…], time 14 day): 6.45 G/DL
URIC ACID ([…], time 14 day): 1.25 mg/dL

From ChEMBL document CHEMBL3885881, “DrugMatrix”
